Data as given in PubChem BioAssay AID1897 (NMMLSC, 2009).
Calls of active or inactive are those of the source. How the calls were made is not given here.

Target: Mitogen-activated protein kinase kinase kinase 2 (Homo sapiens) + Dual specificity mitogen-activated protein kinase kinase 5 (Homo sapiens) (UniProt Q9Y2U5+Q13163)
Assay: MEKK2 PB1-MEK5 interaction blockers – biochemical, bead multiplex flow cytometry, wildtype, dose response (AID 1897)
Conditions: MEK5-MEKK2 PB1 binding; for Ki: measured here: Ki from binding competition

Mitogen-activated protein kinase kinase kinase 2 (Homo sapiens) + Dual specificity mitogen-activated protein kinase kinase 5 (Homo sapiens), sequence (Q13163 whole entry, looked up): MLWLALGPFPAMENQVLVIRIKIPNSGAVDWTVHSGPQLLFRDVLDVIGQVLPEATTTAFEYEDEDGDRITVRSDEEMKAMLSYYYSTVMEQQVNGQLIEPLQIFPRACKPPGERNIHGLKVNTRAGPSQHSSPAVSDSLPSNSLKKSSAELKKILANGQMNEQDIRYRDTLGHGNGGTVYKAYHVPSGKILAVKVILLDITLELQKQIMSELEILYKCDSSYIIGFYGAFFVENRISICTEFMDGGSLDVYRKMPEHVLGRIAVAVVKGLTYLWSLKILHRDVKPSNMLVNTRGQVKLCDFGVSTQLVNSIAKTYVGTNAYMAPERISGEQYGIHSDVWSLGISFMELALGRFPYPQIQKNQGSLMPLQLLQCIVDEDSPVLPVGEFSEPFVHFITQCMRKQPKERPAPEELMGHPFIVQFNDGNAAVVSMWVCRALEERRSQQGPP
Mitogen-activated protein kinase kinase kinase 2 (Homo sapiens) + Dual specificity mitogen-activated protein kinase kinase 5 (Homo sapiens), sequence (Q9Y2U5 whole entry, looked up): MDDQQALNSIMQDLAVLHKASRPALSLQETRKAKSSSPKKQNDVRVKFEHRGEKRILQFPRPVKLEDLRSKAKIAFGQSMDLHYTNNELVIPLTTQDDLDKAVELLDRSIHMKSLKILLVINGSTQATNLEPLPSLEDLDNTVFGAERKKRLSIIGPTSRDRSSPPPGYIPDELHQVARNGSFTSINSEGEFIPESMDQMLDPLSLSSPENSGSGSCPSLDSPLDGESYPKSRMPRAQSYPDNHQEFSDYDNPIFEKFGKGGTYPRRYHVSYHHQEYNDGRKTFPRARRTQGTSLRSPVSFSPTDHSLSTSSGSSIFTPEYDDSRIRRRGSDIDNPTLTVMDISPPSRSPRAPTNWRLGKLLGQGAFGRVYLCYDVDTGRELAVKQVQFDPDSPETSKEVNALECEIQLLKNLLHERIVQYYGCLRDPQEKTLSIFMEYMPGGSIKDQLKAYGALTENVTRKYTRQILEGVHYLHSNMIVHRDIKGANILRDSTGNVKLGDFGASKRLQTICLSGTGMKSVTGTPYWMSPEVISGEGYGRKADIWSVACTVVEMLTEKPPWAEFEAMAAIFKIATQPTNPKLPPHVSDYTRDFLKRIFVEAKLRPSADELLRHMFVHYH

EC50 | Ki | Compound
15.1 µM | – | CCCN(CCC)CCNC(=O)c1cc2c(-c3ccc(Cl)cc3)nn(C)c2s1
5.75 µM | – | S=C(Nc1cccc(Cl)c1)N(CCCN1CCCC1)Cc1cccn1Cc1ccc(Cl)cc1
5.94 µM | – | CCN(CC)CCNC(=O)c1ccc(NC(=O)c2cn(-c3ccccc3)nc2-c2cccs2)cc1
4.49 µM | 4.01 µM | CCC(/C=C1\Sc2ccc(OC)cc2N1CC)=C\c1sc2ccc(OC)cc2[n+]1CCCS(=O)(=O)[O-]
> 30 µM (inactive) | – | CC(=O)Nc1ccc(OCC(O)Cn2c3ccccc3c3ccccc32)cc1 (configuration not stated)
1.94 µM | – | COc1ccc(/C=N/Nc2cc(C)nc3ccc(Br)cc23)cc1
20.9 µM | – | CCCCCc1cc(=O)oc2c(C(CCN3CCCC3)c3ccc(N(C)C)cc3)c(OC)cc(OC)c12 (configuration not stated)
1.75 µM | – | C#CCOCCOCCOCCNc1nc(N2CCN(C(=O)C(Cc3cc4ccccc4[nH]3)n3cc(C(N)C(C)CC)nn3)CC2)nc(N2CCN(C(=O)C(Cc3cc4ccccc4[nH]3)n3cc(C(N)C(C)CC)nn3)CC2)n1 (configuration not stated)
> 30 µM (inactive) | – | C#CCOCCOCCOCCNc1nc(N2CCN(C(=O)[C@H]([C@@H](C)CC)n3cc([C@@H](N)CO)nn3)CC2)nc(N2CCN(C(=O)[C@H](Cc3cc4ccccc4[nH]3)n3cc([C@@H](N)C(C)CC)nn3)CC2)n1 (some centres not stated)
> 30 µM (inactive) | – | COc1ccc2nc(C)cc(N/N=C/c3cccc(OC)c3O)c2c1
5.06 µM | – | CCc1ccc(Nc2n[n+](-c3ccccc3)c(-c3cc(OC)c(OC)cc3Br)s2)cc1
2.26 µM | 2.02 µM | CN1CCN(c2ccc(NC(=O)c3ccc(-c4ccc(Cl)cc4)o3)cc2)CC1
> 30 µM (inactive) | – | CCN1CCN(Cc2ccc(NC(=O)c3cc(NC(=O)c4cnn(-c5ccccc5)c4N)cc(OC)c3)cc2C(F)(F)F)CC1
> 30 µM (inactive) | – | OCCCCNCc1ccc(OCc2ccc(Cl)cc2Cl)cc1
> 30 µM (inactive) | – | O=C(CCCC(=O)N(CC(=O)NC1CCCC1)C1CCCC1)Nc1ccccn1
2.69 µM | – | C#CCOCCOCCOCCNc1nc(N2CCN(C(=O)[C@H](Cc3cc4ccccc4[nH]3)n3cc([C@@H](N)C(C)CC)nn3)CC2)nc(N2CCN(C(=O)[C@H](Cc3cc4ccccc4[nH]3)n3cc([C@@H](N)CC(C)C)nn3)CC2)n1 (some centres not stated)
14.4 µM | – | CCCCN(CC)CCNC(=O)c1cc2c(-c3ccc(Cl)cc3)nn(C)c2s1
> 30 µM (inactive) | – | CC(=O)c1c(C)[nH]c(C(=O)NC2=NCCS2)c1C
9.57 µM | – | CCCCCc1cc(=O)oc2c(C(CCN3CCCC(C)C3)c3ccc(OC)cc3)c(OC)cc(OC)c12 (configuration not stated)
> 30 µM (inactive) | – | CCCCCCCCCCOC(=O)Cn1c(COc2ccc(OC)cc2)[n+](C)c2ccccc21
2.63 µM | 2.35 µM | CCN1/C(=C/c2ccc3cc(C)ccc3[n+]2CC)Sc2cc(C)c(C)cc21

EC50 | Ki | Compound
3.73 µM | – | C#CCOCCOCCOCCNc1nc(N2CCN(C(=O)[C@H]([C@@H](C)CC)n3cc([C@@H](N)Cc4ccc(O)cc4)nn3)CC2)nc(N2CCN(C(=O)[C@H](Cc3cc4ccccc4[nH]3)n3cc([C@@H](N)C(C)CC)nn3)CC2)n1 (some centres not stated)
> 30 µM (inactive) | – | CCOC(=O)c1c(C)n(-c2ccc(C)cc2)c2ccc(OCC(O)CN3CCN(C)CC3)cc12 (configuration not stated)
> 30 µM (inactive) | – | COc1ccc(CSc2n[nH]c(C)n2)cc1[N+](=O)[O-]
6.9 µM | – | C#CCOCCOCCOCCNc1nc(N2CCN(C(=O)[C@H](Cc3cc4ccccc4[nH]3)n3cc([C@@H](N)C(C)CC)nn3)CC2)nc(N2CCN(C(=O)[C@H](CCCCN)n3cc([C@@H](N)CC(C)C)nn3)CC2)n1 (some centres not stated)
> 30 µM (inactive) | – | COc1ccc(Cn2c(SCc3ccccc3C)nc3cc(OC)c(OC)cc3c2=N)cc1
> 30 µM (inactive) | – | COCc1c(C#N)c(NCCc2ccccc2)nc(C)c1[N+](=O)[O-]
2.82 µM | 2.53 µM | CCOC(=O)C(C(=O)OCC)c1cc(Br)c2noc3c2c1C(=O)c1ccccc1-3
0.58 µM | – | CCOC(=O)C1=C(c2ccccc2)NC(N)=NC1c1ccc(OCc2ccc(Cl)cc2)c(OC)c1 (configuration not stated)
> 30 µM (inactive) | – | CCOc1ccc(C2=C/C(=C/c3cccnc3)C(=O)O2)cc1
> 30 µM (inactive) | – | CCN1/C(=C\c2ccc3cc(C)ccc3[n+]2CC)Sc2cc(C)c(C)cc21
2.06 µM | 1.84 µM | C=CCN1C(=O)/C(=C/c2ccc(-c3ccc(F)cc3)o2)SC1=S
5.19 µM | – | FC(F)(F)c1cccc(NC(=S)N(CCCN2CCCC2)Cc2cccn2Cc2ccc(Cl)cc2)c1
1.8 µM | – | CCCCCCCCCCOC(=O)Cn1c(COc2ccc(C)cc2)[n+](C)c2ccccc21
> 30 µM (inactive) | – | CN(C)CCCN(C(=O)c1ccc2c(c1)CCCC2)c1nc2ccc(Cl)cc2s1
> 30 µM (inactive) | – | O=C(NNc1c2ccccc2nc2ccccc12)c1cc2ccccc2cc1O
> 30 µM (inactive) | – | COC(=O)c1c(C)oc(C)c1S(=O)(=O)N(Cc1ccccc1)C(C)C
10.7 µM | 9.61 µM | Nc1cc2nc[nH]c2cc1N
> 30 µM (inactive) | – | CCOC(=O)C1=C(c2ccccc2)NC(N)=NC1c1ccc(OCc2ccc(C(=O)OC)cc2)cc1 (configuration not stated)
> 30 µM (inactive) | – | CCn1cc(C(=O)O)c(=O)c2cc(F)c(N3CCN(C(=S)NC(=O)c4ccc(Br)cc4)CC3)cc21
> 30 µM (inactive) | – | CCCCCc1cc(=O)oc2c(C(CCN3CCCCC3)c3ccc4c(c3)OCO4)c(OC)cc(OC)c12 (configuration not stated)
